In one experiment the target is T1, RARγ (Homo sapiens, UniProt P13631, E108G/G109S/G112V).
T1 construct: expressed in transfected cells; host or cells: CV-1 cells
T1 sequence (P13631 1-454 E108G/G109S/G112V): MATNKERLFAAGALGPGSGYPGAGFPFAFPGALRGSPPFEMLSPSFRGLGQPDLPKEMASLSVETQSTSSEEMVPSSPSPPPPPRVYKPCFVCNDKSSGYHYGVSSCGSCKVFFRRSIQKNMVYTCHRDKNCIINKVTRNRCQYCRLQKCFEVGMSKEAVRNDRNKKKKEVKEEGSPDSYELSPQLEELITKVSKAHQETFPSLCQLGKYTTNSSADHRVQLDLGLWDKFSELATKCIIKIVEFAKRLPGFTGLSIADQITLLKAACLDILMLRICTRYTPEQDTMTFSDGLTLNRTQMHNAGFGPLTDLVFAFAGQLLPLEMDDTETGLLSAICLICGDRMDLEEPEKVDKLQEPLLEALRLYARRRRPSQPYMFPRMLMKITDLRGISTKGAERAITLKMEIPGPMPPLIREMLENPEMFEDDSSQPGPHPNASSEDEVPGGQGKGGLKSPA
T1 sequence (P19793 1-462 partner): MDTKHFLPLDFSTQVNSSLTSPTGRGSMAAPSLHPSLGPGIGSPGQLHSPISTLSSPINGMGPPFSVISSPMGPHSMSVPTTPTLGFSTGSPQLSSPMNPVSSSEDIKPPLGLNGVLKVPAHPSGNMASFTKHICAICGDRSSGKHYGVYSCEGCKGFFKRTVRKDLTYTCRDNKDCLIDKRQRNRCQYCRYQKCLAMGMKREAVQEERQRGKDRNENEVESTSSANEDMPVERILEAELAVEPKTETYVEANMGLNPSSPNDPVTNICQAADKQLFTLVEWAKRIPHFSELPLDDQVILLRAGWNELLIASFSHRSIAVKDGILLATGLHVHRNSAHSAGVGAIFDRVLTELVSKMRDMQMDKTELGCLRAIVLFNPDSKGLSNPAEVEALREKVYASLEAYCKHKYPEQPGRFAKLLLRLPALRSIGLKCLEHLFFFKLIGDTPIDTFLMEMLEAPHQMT
In words: PGR assay (RAR-P-GR holoreceptor transactivation), RARγ. Type of experiment: cell-based. The settings on record: for EC50: PGR assay (transactivation), CV-1 cells, luciferase reporter; for % Efficiency RARγ: efficiency relative to all-trans-retinoic acid, PGR assay. The text has this:
(§1) A holoreceptor transactivation assay and a ligand binding assay which measure the antagonist/agonist like activity of the compounds of the invention, or their ability to bind to the several retinoid receptor subtypes, respectively, are described in published PCT Application No. WO WO93/11755 (particularly on pages 30-33 and 37-41) published on Jun. 24, 1993, the specification of which is also incorporated herein by reference. A detailed experimental procedure for holoreceptor transactivations has been described by Heyman et al. Cell 1992, 68, 397-406; Allegretto et al. J. Biol. Chem. 1993 268, 26625-26633, and Mangelsdorf et al. The Retinoids: Biology, Chemistry and Medicine, pp 319-349, Raven Press Ltd., New York, which are expressly incorporated herein by reference. The results obtained in this assay are expressed in EC50 numbers, as they are also in the chimeric receptor transactivation assay. The results of ligand binding assay are expressed in Kd numbers. (See Cheng et al. Biochemical Pharmacology 22, 3099-3108, expressly incorporated herein by reference.) Still another transactivation assay, the “PGR assay” is described in the publication Klein et al. J. Biol. Chem. 1996, 271, 22692-22696, which is expressly incorporated herein by reference, and a detailed description is also provided below. The results of the PGR assay are also expressed in EC50 numbers (nanomolar concentration).
(§2) RAR-P-GR holoreceptor Transactivation Assay
(§3) CV-1 cells (4×10^5 cells/well) were transiently transfected with the luciferase reporter plasmid MTV-4(R5G)-Luc (0.7 μg/well) containing four copies of the R5G retinoid DNA response element along with the RXRα expression plasmid pRS-hRXRa (0.1 μg/well) and one of the RAR-P-GR expression plasmids (0.05 μg/well) in 12 well plates via calcium phosphate precipitation Chen et al. Mol. Cell. Biol. 1987, 7, 2745-2752 as described by Klein et al. J. Biol. Chem. 1996, 271, 22692, referenced above. The three different RAR-P-GR expression plasmids, pRS-RARα-P-GR, pcDNA3-RARβ-P-GR and pcDNA3-RARγ-P-GR, express RARα, RARβ and RARγ receptors, respectively, which contain modified DNA binding domains such that their “P-boxes” have been altered to that of the glucocorticoid receptor. These RAR-P-GR receptors bind to DNA as heterodimeric complexes with RXR. Specifically, the RAR-P-GR receptors bind retinoic acid response elements designated R5G, comprised of two RAR half sites (nucleotide sequence 5′-GGTTCA-3′) separated by 5 base pairs in which the 3′-half site has been modified to that of a glucocorticoid receptor half site, 5′-AGAACA-3′. To allow for various in transfection efficiency a β-galactosidase expression plasmid (0.01 μg/well) was used as an internal control. Alternatively, the assay was performed in a 96-well microtiter plate format (5000 cells/well) in a manner which was identical to that described above except ⅕ of the amount of the DNA-calcium phosphate precipitant (20 μl instead of 100 Al) was applied to each well. Eighteen hours after introduction of the DNA precipitants, cells were rinsed with phosphate buffered saline (PBS) and fed with D-MEM (Gibco-BRL) containing 10% activated charcoal extracted fetal bovine serum (Gemini Bio-Products). After rinsing with PBS cells were lysed with luciferase activity was measured as previously described in de Wet Mol. Cell. Biol. 1987, 7, 725-737. Luciferase values represent the mean±SEM of triplicate determinations normalized to β-galactosidase activity. The results of the PGR assay are also expressed in EC50 numbers (nanomolar concentration).
Background: A reporter such as luciferase makes a cellular process visible.

Another experiment addresses RARβ (Homo sapiens, UniProt P10826, E106G/G107S/G110V). The experiment in a line: PGR assay (RAR-P-GR holoreceptor transactivation), RARβ. Type of experiment: cell-based. The settings on record: for Emax: 18 h; for EC50: PGR assay (transactivation), CV-1 cells, luciferase reporter.
From the text: as §1, §2, §3

The mark [1] stands for this setting: efficiency relative to all-trans-retinoic acid, PGR assay.

Sequence of RARβ (P10826 whole entry E106G/G107S/G110V, one chain of several): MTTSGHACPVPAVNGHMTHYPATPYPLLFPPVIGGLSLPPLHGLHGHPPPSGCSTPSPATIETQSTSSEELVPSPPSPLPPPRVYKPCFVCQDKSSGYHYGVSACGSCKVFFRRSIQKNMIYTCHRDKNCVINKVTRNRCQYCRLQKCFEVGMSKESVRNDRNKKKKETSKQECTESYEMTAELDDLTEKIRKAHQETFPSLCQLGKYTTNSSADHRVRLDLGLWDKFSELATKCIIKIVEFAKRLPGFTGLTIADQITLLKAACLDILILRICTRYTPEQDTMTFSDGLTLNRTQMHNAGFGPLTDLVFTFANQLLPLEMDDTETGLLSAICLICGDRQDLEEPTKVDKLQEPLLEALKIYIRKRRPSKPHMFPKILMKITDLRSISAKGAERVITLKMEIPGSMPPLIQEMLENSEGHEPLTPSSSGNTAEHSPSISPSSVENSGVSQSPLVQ

For `CC(C)(C)c1ccc(C(=O)Nc2ccc(C(=O)O)c(F)c2)cc1Oc1ccc(C(F)(F)F)cc1` [Compound 13, 4-[[4′-tert-Butyl-3′-(4″-trifluoromethyl)phenoxy]benzoylamino]-2-fluorobenzoic Acid], on RARγ, the 50% effective concentration (EC50) – broadly, the midpoint of the concentration-response curve – is over 10 µM and the “% Efficiency RARγ” value was found to be 4%. Further, the Emax (commonly the maximal effect, on the per cent scale that the assay sets) on RARβ (setting [1]) came out at 5%. The EC50 on RARβ is over 10 µM.

Turning to `COC(=O)c1ccc(Oc2cc(C#Cc3ccc(C(=O)O)c(F)c3)ccc2C(C)(C)C)cc1` [Compound 10, 4-[[4′-tert-Butyl-3′-(4″-carbomethoxy)phenoxy]phenylethynyl]-2-fluorobenzoic Acid], on RARγ, the EC50 was over 10 µM and the “% Efficiency RARγ” value is 0%. Besides, at RARβ (setting [1]), the Emax is 0%. Besides, the EC50 on RARβ was over 10 µM.

For `CC(C)(C)c1ccc(C#Cc2ccc(C(=O)O)c(F)c2)cc1Oc1ccc([N+](=O)[O-])cc1` [Compound 11, 4-[[4′-tert-Butyl-3′-(4″-nitro)phenoxy]phenylethynyl]-2-fluoro-benzoic Acid], on RARγ, the half-maximal effective concentration (EC50) was over 10 µM and the “% Efficiency RARγ” value is listed as 1%. The Emax at RARβ (setting [1]) came out at 3%. This compound had a 50% effective concentration (EC50) on RARβ of over 10 µM.

Take `CC(C)(C)c1ccc(C#Cc2ccc(C(=O)O)cn2)cc1Oc1ccc(C(F)(F)F)cc1` [Compound 6, 6-[[4′-tert-Butyl-3′-(4″-trifluomethyl)phenoxy]phenylethynyl]-3-nicotinic Acid]: the EC50 on RARγ and on RARβ was over 10 µM throughout. In addition, the “% Efficiency RARγ” value at RARγ is reported as 70%. For the same compound, the “% Efficiency RARβ” value on RARβ (setting [1]) amounted to 0%.
